Where two headings read alike, the source gives them in different places.
Legend:
[1] = tested on: Hedgehog signaling activity; assay: Gli-luciferase reporter assay in rat hepatic stellate cell line; type: cell-based; conditions: for CONCENTRATION REGION restoring Hedgehog signaling activity / PREFERRED CONCENTRATION restoring Hedgehog signaling activity: alcohol-treated hepatic stellate cells; for efficacy order on hedgehog signaling: fish and rat liver cell line
Experimental: The Gli-luciferase reporter assay was performed in duplicated experiments of a rat hepatic stellate cell line, […]. Briefly, […] cells, were grown in DMEM medium supplemented with 10% fetal bovine serum and penicillin and streptomycin (100 U/ml). At 40-50% confluency, cells were transfected with Gli-BS-Firefly luciferase plasmid (60 ng nl^−1) and Renilla luciferase plasmid ([…], pRL-TK, Promega) (concentration ratio 10:1) by using FuGENE 6 Transfection Reagent (Roche Applied Science). […] Two hours later, the medium was added to different drugs (20α-OHC, 22(S)-OHC, 25-OHC and cholesterol). After 16 hrs, the cells were washed three times in ice-cold PBS, and then were assayed by Dual/Luciferase Reporter Assay System (Promega). Activity of the Firefly luciferase reporter was normalized to the activity of a Renilla luciferase internal control for transfection efficiency.

zebra fish embryos [2] = assay: Zebra fish embryo exposure to alcohol, cyclopamine or AY-9944: survival and phenotype; conditions: for developmental malformations of treated embryos: transient treatment during gastrulation, alcohol 2%, cyclopamine 10.0 μM, AY-9944 7.5 μM
Shh secretion = conditions: 3 hours, HSC 8B cells, Elisa
Experimental: Applicant analyzed proteins collected from the HSC 8B culture medium for Shh ligand content using two independent methods: Western blot analysis and Elisa assay. […] The cultures were incubated for an additional 3 hours, and culture medium was then harvested and concentrated for protein isolation.

[3] = tested on: Shh target genes Ptc, Gli1, Nkx2.2; conditions: real-time quantitative PCR
Experimental: Total RNA was extracted from embryos (n=10) with RNeasy kits (Qiagen). RT-PCR were performed using primers (information listed in following table) as previously described.^52

Shh [4] = conditions: alcohol-exposed embryos, Western blot
Description: Total cellular protein was isolated as previously described^51 and cell membrane proteins were isolated using the Mem-PER(r) Eukaryotic Membrane Protein Extraction Reagent Kit (Pierce Biotechnology). Proteins (4o μg) in Laemmli buffer were then separated by 12% Tris-HCl SDS-polyacrylamide gel electrophoresis and transferred to a PVDF membrane. Membranes were blocked, washed, and exposed to primary antibodies (Santa Cruz Biotechnology) against Shh (N-19, Catalog number: sc-1194; dilution: 1:2.500) and β-actin (1:1.000). Signals were detected by Anti-goat HRP antibody (1:10.000, Amersham).

[5] = chronic alcohol feeding versus both control groups, p<0.001
Shh [6] = tested on: Shh
zebra fish embryos [7] = conditions: zebrafish, in vivo
zebra fish embryos [8] = conditions: 2.0% alcohol for 6 hours from 4.3 hpf, no supplement; 72 hpf
[9] = alcohol-exposed embryos
Description: Upon esterified reaction, then the cholesterol ester can be transported from the embryonic yolk to the body. […] The fluorescent molecule, Filipin can selectively bind to free cholesterol, but not cholesterol ester; in other hand, the dye of oil red O identifies neutral lipids molecules such as cholesterol ester, but not polarized free cholesterol. First, applicant quantitatively analyzed the free cholesterol by whole mount in situ filipin staining.

[10] = alcohol exposure during gastrulation, dose-related
Experimental: Cholesterol content was then measured by the Arnplex Red Cholesterol Assay Kit (Invitrogen).

Shh [11] = conditions: 0.6% alcohol (w/v, 109 mM) for 30 minutes
[12] = tested on: Hh-responsive Gli-BS luciferase reporter; assay: Gli-luciferase reporter assay in embryos; type: in vivo, zebra fish
Experimental: The Gli-luciferase reporter assay was performed in replicate experiments of pooled embryos (n=15). Briefly, zebra fish embryos at the 1-2 cell stage were microinjected with 0.5 nl of Gli-BS-Firefly luciferase plasmid (60 ng nl^−1) and Renilla luciferase plasmid (60 ng nl^−1, pRL-TK, Promega). Reporter activity was determined by using the Dual-Luciferase Reporter Assay System (Promega). Activity of the Firefly luciferase reporter was normalized to the activity of a Renilla luciferase internal control for transfection efficiency.
(§1) Embryos were microinjected at 1-2 cell stage with 0.2 nl of 5 μg μl^−1 ([…]) cholesterol (BioVision Inc.) with or without the two plasmids for the Gli-luciferase reporter assay. […] At 48 hpf embryos were analyzed.

Caveolin-1/Shh complex = conditions: alcohol 0.3, 0.5, 0.6, 0.8% w/v for 2 hours
Description: First, as described in FIG. 6, cellular proteins isolated by non-ionic detergent resistant cellular extraction were fractionalized by density gradient ultracentrifugation. […] Fractions 7 through 9 from the density gradient were pooled and used in the immunoprecipitation assay.

zebra fish embryos [13] = assay: Cholesterol microinjection rescue of alcohol-exposed embryos; type: in vivo; conditions: 48 hpf
Experimental: as §1

Shh [14] = tested on: Shh; remark: listed apart in the source

Compound: 2,6,10,15,19,23-Hexamethyl-2,6,20,24,28,22-Tetracosahexaene [Squalene]
- CONCENTRATION REGION restoring Hedgehog signaling activity [1]: 0.1 to 100 µM
- PREFERRED CONCENTRATION restoring Hedgehog signaling activity [1]: 1 to 10 µM
- efficacy order on hedgehog signaling [1]: efficacy order is 25-OHC, 22(S)-OHC, cholesterol, 20α-OHC and followed with squalene

Compound: CC(C)CCC[C@](C)(O)[C@H]1CC[C@H]2[C@@H]3CC=C4C[C@@H](O)CC[C@]4(C)[C@H]3CC[C@@]21C [20α-Hydroxycholesterol, 20-hydroxycholesterol]
- CONCENTRATION REGION restoring Hedgehog signaling activity [1]: 0.1 to 100 µM
- PREFERRED CONCENTRATION restoring Hedgehog signaling activity [1]: 1 to 5 µM
- efficacy order on hedgehog signaling [1]: efficacy order is 25-OHC, 22(S)-OHC, cholesterol, 20α-OHC and followed with squalene

Compound: CC(C)CCC(O)[C@@H](C)[C@H]1CC[C@H]2[C@@H]3CC=C4C[C@@H](O)CC[C@]4(C)[C@H]3CC[C@]12C (stereo partly drawn) [22(S)-Hydroxycholesterol, 5-cholestene-3b,22-diol]
- CONCENTRATION REGION restoring Hedgehog signaling activity [1]: 0.1 to 100 µM
- PREFERRED CONCENTRATION restoring Hedgehog signaling activity [1]: 1 to 5 µM
- efficacy order on hedgehog signaling [1]: efficacy order is 25-OHC, 22(S)-OHC, cholesterol, 20α-OHC and followed with squalene

Compound: C[C@H](CCCC(C)(C)O)[C@H]1CC[C@H]2[C@@H]3CC=C4C[C@@H](O)CC[C@]4(C)[C@H]3CC[C@]12C [25-hydroxycholesterol, 5-cholestene-3b,25-diol]
- CONCENTRATION REGION restoring Hedgehog signaling activity [1]: 0.1 to 100 µM
- PREFERRED CONCENTRATION restoring Hedgehog signaling activity [1]: 5 to 15 µM
- efficacy order on hedgehog signaling [1]: efficacy order is 25-OHC, 22(S)-OHC, cholesterol, 20α-OHC and followed with squalene

Compound: Cl.Cl.Clc1ccccc1CNC[C@H]1CC[C@H](CNCc2ccccc2Cl)CC1 [AY-9944, trans-1,4 bis-(2-dichlorobenzylaminomethyl) cyclohexane dihydrochloride, reference compound]
- developmental malformations of treated embryos (zebra fish embryos [2]): HPE and partial cyclopia, as well as underdevelopment of the craniofacial bones and muscles, and failure of the heart tube to loop

Compound: CCO [Alcohol, ethanol]
- decrease in Shh secretion (Shh secretion; 0.3% (55 mM) alcohol): 1.2 fold
- decrease in Shh secretion (Shh secretion; 0.6% (109 mM) alcohol): 4.2 fold
- decrease in Shh secretion (Shh secretion; 0.8% (136 mM) alcohol): 5.5 fold
- change in expression of Ptc or Gli1 ([3]; 0.25% alcohol): no significant change
- decrease of Nkx2.2 expression ([3]; 0.25% alcohol): about 50%
- Shh transcription ([3]; alcohol concentrations higher than 1.0%): decreased
- Shh in cellular membrane protein fraction (Shh [4]): progressive loss of Shh from the cellular membrane protein fraction
- ratio of cholesterol ester to total cholesterol in plasma [5]: significantly decreased
- Shh distribution pattern relative to ER marker (Shh [6]; 0.6% (w/v) alcohol for one hour): diffuse, homogeneous distribution pattern
- punctate co-localized Caveolin-1/Shh particles (Shh [6]; alcohol 0.4% and 0.8% (w/v) for thirty minutes): dramatically decreased in an alcohol dose dependent manner
- embryos alive at 48 hpf (zebra fish embryos [7]): 10%
- embryos alive with minimal abnormalities at 48 hpf (zebra fish embryos [7]): 18%
- embryos alive with normal phenotypes at 48 hpf (zebra fish embryos [7]): 72.3%
- living embryos phenotypically normal at 48 hpf (zebra fish embryos [7]): 2.6%
- embryos developed relatively normal on gross morphology (zebra fish embryos [8]): 15%
- cholesterol ester (oil red O staining) in embryo yolk and body [9]: dramatic decrease of cholesterol ester in the embryonic yolk, with little or no change in its concentration in the embryonic body
- free cholesterol (filipin staining) in embryo body and yolk [9]: large decrease in cholesterol concentration in the embryonic body, but not in the embryonic yolk
- total cholesterol content of the embryos [10]: decrease in the total cholesterol content
- density gradient distribution of Shh (Shh [11]): restricted to fractions 12 through 17
- Hedgehog signaling (Gli binding site derived luciferase activities) in hepatic stellate cells ([1]; alcohol 0.25, 0.5, 0.75 and 1.0% v/v versus no alcohol (A0)): decrease Hedgehog signaling activates
- survival rate at 48 hpf (zebra fish embryos [2]; 0.25% alcohol for 6 h, late blastula-gastrula stage (second window)): over 90%
- embryos survived to 48 hpf (zebra fish embryos [2]; 0.25% alcohol, first exposure window (1 to 2 cell stages to 3 hpf)): < 40%
- embryos that failed to survive to 48 hpf (zebra fish embryos [2]; 0.25% alcohol, second exposure window): < 10%
- embryos survived through 48 hpf with abnormal morphology (zebra fish embryos [2]; 2% alcohol, second exposure window): 84%
- embryos for which exposure was lethal (zebra fish embryos [2]; 2% alcohol, second exposure window, 48 hpf): 13%
- Gli-BS luciferase activity in embryos ([12]; following alcohol exposure (0.25-2.0%)): decreased in a dose-related fashion
- amount of Caveolin-1 in the lipid raft fractions (Caveolin-1/Shh complex): did not affect the amount of Caveolin-1
- amount of Shh in Caveolin-1 containing lipid raft fractions (fractions 7-9) (Caveolin-1/Shh complex): decreased in an alcohol dose-dependent manner
- embryos with FASD-like phenotypes (zebra fish embryos [13]; alcohol-exposed, unsupplemented embryos): 83.3%
- co-localization of Shh and lipid raft (Shh [14]; alcohol 0.25% v/v for 5 minutes): disrupted
- Shh localization (Shh [14]; alcohol 1% for one hour): almost all of the Shh protein was accumulated inside of the liver stellate cells

Compound: CC(C)CCC[C@@H](C)[C@H]1CC[C@H]2[C@@H]3CC=C4C[C@@H](O)CC[C@]4(C)[C@H]3CC[C@]12C [Cholesterol, 10,13-dimethyl-17-(6-methylheptan-2-yl)-2,3,4,7,8,9,11,12,14,15,16,17-dodecahydro-1H-cyclopenta[a]phenanthren-3-ol]
- CONCENTRATION REGION restoring Hedgehog signaling activity [1]: 1 to 50 µM
- PREFERRED CONCENTRATION restoring Hedgehog signaling activity [1]: 1 to 20 µM
- efficacy order on hedgehog signaling [1]: efficacy order is 25-OHC, 22(S)-OHC, cholesterol, 20α-OHC and followed with squalene
- Gli-BS reporter activity in cholesterol-supplemented, alcohol-exposed embryos ([12]; cholesterol 10 pg microinjected at 1-2 cell stage, various alcohol concentrations during gastrulation): preserved at all doses of alcohol exposure
- embryos that appeared grossly normal (zebra fish embryos [13]; cholesterol-supplemented (10 pg), alcohol-exposed embryos): 94.8%

Compound: CC1=C2C[C@H]3[C@@H](CC=C4C[C@@H](O)CC[C@@]43C)[C@@H]2CC[C@]12O[C@@H]1C[C@H](C)CN[C@H]1[C@H]2C [cyclopamine, 11-deoxojervine, reference compound]
- developmental malformations of treated embryos (zebra fish embryos [2]): HPE and partial cyclopia, as well as underdevelopment of the craniofacial bones and muscles, and failure of the heart tube to loop
